{
  "source": "patent US20240200091A1",
  "about": "“USE OF PROTOPORPHYRINOGEN OXIDASE” (BEIJING DABEINONG BIOTECHNOLOGY CO., LTD., priority 2021, published 2024)",
  "format_in_all_cases": "in vivo",
  "key": {"[1]": {"test_system": "Arabidopsis thaliana T1 plants", "test": "sulfentrazone tolerance of transgenic Arabidopsis thaliana T1 plants (spray, grade of pesticide damage)", "conditions": "for Arabidopsis thaliana, sulfentrazone herbicide", "text": "(§1) The transformed Arabidopsis thaliana T1 plants were initially selected using glufosinate herbicide. The Arabidopsis thaliana T1 plants (PPO1A) into which the PPO1A nucleotide sequence was introduced, the Arabidopsis thaliana T1 plants (PPO2A) into which the PPO2A nucleotide sequence was introduced, the Arabidopsis thaliana T1 plants (PPO3A) into which the PPO3A nucleotide sequence was introduced, the Arabidopsis thaliana T1 plants (PPO4A) into which the PPO4A nucleotide sequence was introduced, the Arabidopsis thaliana T1 plants (PPO5A) into which the PPO5A nucleotide sequence was introduced, the Arabidopsis thaliana T1 plants (PPO6A) into which the PPO6A nucleotide sequence was introduced, the Arabidopsis thaliana T1 plants (PPO7A) into which the PPO7A nucleotide sequence was introduced, the Arabidopsis thaliana T1 plants (PPO8A) into which the PPO8A nucleotide sequence was introduced, the Arabidopsis thaliana T1 plants (PPO9A) into which the PPO9A nucleotide sequence was introduced, the Arabidopsis thaliana T1 plants (PPO10A) into which the […] nucleotide sequence was introduced, the Arabidopsis thaliana T1 plants (PPO11A) into which the PPO11A nucleotide sequence was introduced, the Arabidopsis thaliana T1 plants (PPO12A) into which the PPO12A nucleotide sequence was introduced, the Arabidopsis thaliana T1 plants (PPO13A) into which the PPO13A nucleotide sequence was introduced, the Arabidopsis thaliana T1 plants (PPO14A) into which the PPO14A nucleotide sequence was introduced, the Arabidopsis thaliana T1 plants (PPO-ATA) into which the PPO-ATA nucleotide sequence was introduced, the Arabidopsis thaliana T1 plants (PPO-APA) into which the PPO-APA nucleotide sequence was introduced, the Arabidopsis thaliana T1 plants (control vector) into which the control vector was introduced, and the wild-type Arabidopsis thaliana plants (CK) (with 24 plants being included in each genotype) (18 days after sowing) were sprayed with oxyfluorfen at three concentrations (180 g ai/ha (one-fold field concentration, 1×), 720 g ai/ha (four-fold field concentration, 4×), and 0 g ai/ha (water, 0×)), saflufenacil at three concentrations (25 g ai/ha (one-fold field concentration, 1×), 100 g ai/ha (four-fold field concentration, 4×), and 0 g ai/ha (water, 0×)), flumioxazin at three concentrations (60 g ai/ha (one-fold field concentration, 1×), 240 g ai/ha (four-fold field concentration, 4×), and 0 g ai/ha (water, 0×), and sulfentrazone at three concentrations (450 g ai/ha (one-fold field concentration, 1×), 900 g ai/ha (two-fold field concentration, 2×), and 0 g ai/ha (water, 0×) to determine the tolerance of Arabidopsis thaliana to the herbicides. After 7 days of spraying (7 DAT), the damage level of each plant caused by the herbicide was evaluated according to the average of the damage levels (%) of plants (the average of the damage levels (%) of plants=the injured leaf area/the total leaf area×[…]), i.e., the grade of pesticide damage: grade 0 means that the growth status of plants is essentially consistent with those sprayed with the blank solvent (water); grade 1 means that the average of the damage levels of plants is less than 10%; grade 2 means that the average of the damage levels of plants is greater than […]; and grade 3 means that the average of the damage levels of plants is 100%. The plants having a growth status falling within grades 0 and 1 are classified as highly resistant plants; those having a growth status falling within grade 2 are classified as poorly resistant plants; and those having a growth status falling within grade 3 are classified as non-resistant plants."}, "[2]": {"test_system": "Arabidopsis thaliana T1 plants", "test": "saflufenacil tolerance of transgenic Arabidopsis thaliana T1 plants (spray, grade of pesticide damage)", "conditions": "for Arabidopsis thaliana, saflufenacil herbicide", "text": "as §1"}, "[3]": {"test_system": "Arabidopsis thaliana T1 plants", "test": "flumioxazin tolerance of transgenic Arabidopsis thaliana T1 plants (spray, grade of pesticide damage)", "conditions": "for Arabidopsis thaliana, flumioxazin herbicide", "text": "as §1"}},
  "data": [
    {"smiles": "Cc1nn(-c2cc(NS(C)(=O)=O)c(Cl)cc2Cl)c(=O)n1C(F)F", "note": "[sulfentrazone, N-(2,4-dichloro-5-(4-difluoromethyl-4,5-dihydro-3-methyl-5-oxo-1H-1,2,4-triazole-1-yl)phenyl)methanesulfonamide, reference compound]", "values": [
      {"measurement": "effective dose distinguishing sensitive plants from plants having an average level of resistance", "setting": "[1]", "result": 450, "unit": "g ai/ha"}
    ]},
    {"smiles": "CC(C)N(C)S(=O)(=O)NC(=O)c1cc(-n2c(=O)cc(C(F)(F)F)n(C)c2=O)c(F)cc1Cl", "note": "[saflufenacil, N′-[2-chloro-4-fluoro-5-(3-methyl-2,6-dioxo-4-(trifluoromethyl)-3,6-dihydro-1(2H)-pyrimidine)benzoyl]-N-isopropyl-N-methylsulfamide, reference compound]", "values": [
      {"measurement": "effective dose distinguishing sensitive plants from plants having an average level of resistance", "setting": "[2]", "result": 25, "unit": "g ai/ha"}
    ]},
    {"smiles": "C#CCN1C(=O)COc2cc(F)c(N3C(=O)C4=C(CCCC4)C3=O)cc21", "note": "[flumioxazin, 2-[7-fluoro-3,4-dihydro-3-oxo-4-(2-propynyl)-2H-1,4-benzoxazin-6-yl]-4,5,6,7-tetrahydro-1H-isoindole-1,3(2H)-dione, reference compound]", "values": [
      {"measurement": "effective dose distinguishing sensitive plants from plants having an average level of resistance", "setting": "[3]", "result": 60, "unit": "g ai/ha"}
    ]}
  ]
}
